Experimental data: patent US12637437B2, “Herbicidal compounds” (SYNGENTA CROP PROTECTION AG, priority 2021, dated 2026)

What was measured:
Type in all cases: in vivo
[1] = tested on: Amaranthus retoflexus (AMARE); assay: Post-emergence herbicidal glasshouse test, AMARE; set-up: dose or concentration left out as unconfirmed; settings: evaluated after 13 days, five-point scale
Description: (§1) Seeds of a variety of test species are sown in standard soil in pots (Lolium perenne (LOLPE), Amaranthus retoflexus (AMARE), Abutilon theophrasti (ABUTH), Setaria faberi (SETFA), Echinochloa crus-galli (ECHCG), Ipomoea hederacea (IPOHE)). After cultivation for one day (pre-emergence) or after 8 days cultivation (post-emergence) under controlled conditions in a glasshouse (at 24/16° C., day/night; 14 hours light; 65% humidity), the plants are sprayed with an aqueous spray solution derived from the formulation of the technical active ingredient in acetone/water (50:50) solution containing 0.5% Tween 20 (polyoxyethelyene sorbitan monolaurate, CAS RN 9005-64-5). Compounds are applied at 125 g/h unless otherwise indicated. The test plants are then grown in a glasshouse under controlled conditions in a glasshouse (at 24/16° C., day/night; 14 hours light; 65% humidity) and watered twice daily. After 13 days for pre and post-emergence, the test is evaluated for the percentage damage caused to the plant. The biological activities are shown in the following table on a five-point scale (5=80-100%; 4=60-79%; 3=40-59%; 2=20-39%; 1=0-19%). “—” denotes not tested on this species or data not captured.

Setaria faberi (SETFA) [2] = assay: Post-emergence herbicidal glasshouse test, SETFA; settings: 125 g/h, evaluated after 13 days, five-point scale
Description: as §1

[3] = tested on: Echinochloa crus-galli (ECHCG); assay: Post-emergence herbicidal glasshouse test, ECHCG; settings: 125 g/h, evaluated after 13 days, five-point scale
Description: as §1

[4] = tested on: Ipomoea hederacea (IPOHE); assay: Post-emergence herbicidal glasshouse test, IPOHE; settings: 125 g/h, evaluated after 13 days, five-point scale
Description: as §1

[5] = tested on: Amaranthus retoflexus (AMARE); assay: Pre-emergence herbicidal glasshouse test, AMARE; settings: 125 g/h, evaluated after 13 days, five-point scale
Description: as §1

Setaria faberi (SETFA) [6] = assay: Pre-emergence herbicidal glasshouse test, SETFA; settings: 125 g/h, evaluated after 13 days, five-point scale
Description: as §1

[7] = tested on: Echinochloa crus-galli (ECHCG); assay: Pre-emergence herbicidal glasshouse test, ECHCG; settings: 125 g/h, evaluated after 13 days, five-point scale
Description: as §1

[8] = tested on: Ipomoea hederacea (IPOHE); assay: Pre-emergence herbicidal glasshouse test, IPOHE; settings: 125 g/h, evaluated after 13 days, five-point scale
Description: as §1

SMILES | percentage damage caused to the plant, POST Application AMARE [1] | percentage damage caused to the plant, POST Application SETFA (Setaria faberi (SETFA) [2]) | percentage damage caused to the plant, POST Application ECHCG [3] | percentage damage caused to the plant, POST Application IPOHE [4] | percentage damage caused to the plant, PRE Application AMARE [5] | percentage damage caused to the plant, PRE Application SETFA (Setaria faberi (SETFA) [6]) | percentage damage caused to the plant, PRE Application ECHCG [7] | percentage damage caused to the plant, PRE Application IPOHE [8]
CCCOC(=O)Nc1c(OC(F)(F)F)ccc(C(=O)Nc2nnnn2C)c1Cl [Compound 1.014] | 4 (4=60-79%) | 5 (5=80-100%) | 5 (5=80-100%) | 4 (4=60-79%) | 3 (3=40-59%) | 4 (4=60-79%) | 4 (4=60-79%) | 2 (2=20-39%)
Cn1nnnc1NC(=O)c1ccc(OC(F)F)c(NC(=O)OCC(F)F)c1Cl [Compound 1.015] | 5 (5=80-100%) | 5 (5=80-100%) | 5 (5=80-100%) | 4 (4=60-79%) | 5 (5=80-100%) | 5 (5=80-100%) | 5 (5=80-100%) | 3 (3=40-59%)
CCCOC(=O)Nc1c(OC(F)F)ccc(C(=O)Nc2nnnn2C)c1Cl [Compound 1.016] | 4 (4=60-79%) | 5 (5=80-100%) | 5 (5=80-100%) | 3 (3=40-59%) | 5 (5=80-100%) | 3 (3=40-59%) | 4 (4=60-79%) | 2 (2=20-39%)
CC(C)OC(=O)Nc1c(OC(F)F)ccc(C(=O)Nc2nnnn2C)c1Cl [Compound 1.017] | 5 (5=80-100%) | 5 (5=80-100%) | 5 (5=80-100%) | 5 (5=80-100%) | 5 (5=80-100%) | 5 (5=80-100%) | 5 (5=80-100%) | 4 (4=60-79%)
COCCOC(=O)Nc1c(OC(F)F)ccc(C(=O)Nc2nnnn2C)c1Cl [Compound 1.018] | 4 (4=60-79%) | 5 (5=80-100%) | 5 (5=80-100%) | 4 (4=60-79%) | 4 (4=60-79%) | 3 (3=40-59%) | 4 (4=60-79%) | 2 (2=20-39%)
COCCCOC(=O)Nc1c(OC(F)(F)F)ccc(C(=O)Nc2nnnn2C)c1Cl [Compound 1.019] | 5 (5=80-100%) | 5 (5=80-100%) | 5 (5=80-100%) | 4 (4=60-79%) | 3 (3=40-59%) | 2 (2=20-39%) | 5 (5=80-100%) | 4 (4=60-79%)
Cn1nnnc1NC(=O)c1ccc(OC(F)(F)F)c(NC(=O)OC2CCOCC2)c1Cl [Compound 1.020] | 5 (5=80-100%) | 5 (5=80-100%) | 5 (5=80-100%) | 5 (5=80-100%) | 5 (5=80-100%) | 5 (5=80-100%) | 5 (5=80-100%) | 5 (5=80-100%)
CC(=O)N1CCC(OC(=O)Nc2c(OC(F)(F)F)ccc(C(=O)Nc3nnnn3C)c2Cl)CC1 [Compound 1.021] | 4 (4=60-79%) | 4 (4=60-79%) | 5 (5=80-100%) | 2 (2=20-39%) | 3 (3=40-59%) | 1 (1=0-19%) | 1 (1=0-19%) | 2 (2=20-39%)
COCCCOC(=O)Nc1c(OC(F)F)ccc(C(=O)Nc2nnnn2C)c1Cl [Compound 1.022] | 5 (5=80-100%) | 5 (5=80-100%) | 5 (5=80-100%) | 4 (4=60-79%) | 5 (5=80-100%) | 4 (4=60-79%) | 4 (4=60-79%) | 4 (4=60-79%)
CC(=O)N1CCC(OC(=O)Nc2c(OC(F)F)ccc(C(=O)Nc3nnnn3C)c2Cl)CC1 [Compound 1.023] | 4 (4=60-79%) | 2 (2=20-39%) | 3 (3=40-59%) | 1 (1=0-19%) | 3 (3=40-59%) | 1 (1=0-19%) | 1 (1=0-19%) | 2 (2=20-39%)
Cn1nnnc1NC(=O)c1ccc(OC(F)F)c(NC(=O)OCCC#N)c1Cl [Compound 1.024] | 5 (5=80-100%) | 5 (5=80-100%) | 5 (5=80-100%) | 4 (4=60-79%) | 5 (5=80-100%) | 3 (3=40-59%) | 4 (4=60-79%) | 5 (5=80-100%)
Cn1nnnc1NC(=O)c1ccc(OC(F)F)c(NC(=O)OC2CCOCC2)c1Cl [Compound 1.027] | 5 (5=80-100%) | 5 (5=80-100%) | 5 (5=80-100%) | 5 (5=80-100%) | 4 (4=60-79%) | 5 (5=80-100%) | 4 (4=60-79%) | 4 (4=60-79%)
CCOC(=O)N(CC)c1c(OC(F)(F)F)ccc(C(=O)Nc2nnnn2C)c1Cl [Compound 1.031] | 5 (5=80-100%) | 5 (5=80-100%) | 5 (5=80-100%) | 5 (5=80-100%) | 5 (5=80-100%) | 5 (5=80-100%) | 5 (5=80-100%) | 5 (5=80-100%)
